# Laboratory results taken from PubChem BioAssay (NCI).
#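 Tested at 5 concentrations; 48 h exposure; 96-well plates; endpoints linearly interpolated, else capped at highest concentration. GI50 = concentration required for 50% inhibition of growth. Definition used: TGI = concentration required for complete inhibition of growth.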
# Columns and labels:
# Assay in all cases: growth of human tumour cells (NCI), 48 h
# [1] = test system: SN12C renal
# [2] = test system: M14 melanoma
# [3] = test system: UACC-62 melanoma
# [4] = test system: PC-3 prostate
# [5] = test system: IGROV1 ovarian
# [6] = test system: LOX IMVI melanoma
# [7] = test system: HS 578T breast
# [8] = test system: K-562 leukemia
# [9] = test system: HT29 colon
# [10] = test system: HOP-92 NSCLC
# [11] = test system: HCT-15 colon
# [12] = test system: A549 NSCLC
# [13] = test system: UACC-257 melanoma
# [14] = test system: HOP-62 NSCLC
# [15] = test system: MCF7 breast
# [16] = test system: MOLT-4 leukemia
# [17] = test system: NCI-H23 lung
# [18] = test system: HCC-2998 colon
# [19] = test system: NCI-H522 lung
# [20] = test system: T-47D breast
# [21] = test system: SW-620 colon
# [22] = test system: SF-539 CNS
# [23] = test system: RXF 393 renal
# [24] = test system: CCRF-CEM leukemia
# [25] = test system: MDA-MB-435
# [26] = test system: UO-31 renal
# [27] = test system: A498 renal
# [28] = test system: SNB-75 CNS
# [29] = test system: SF-295 CNS
# [30] = test system: NCI/ADR-RES ovarian
# [31] = test system: MDA-MB-231 breast
# [32] = test system: OVCAR-8 ovarian
# [33] = test system: HCT-116 colon
# [34] = test system: U251 CNS
# [35] = test system: CAKI-1 renal
# [36] = test system: OVCAR-5 ovarian
# [37] = test system: RPMI-8226 leukemia
# [38] = test system: SF-268 CNS
# [39] = test system: SK-MEL-28 melanoma
# [40] = test system: OVCAR-4 ovarian
# [41] = test system: SK-MEL-5 melanoma
# [42] = test system: EKVX NSCLC
# [43] = test system: 786-0 renal
# [44] = test system: SK-OV-3 ovarian
# [45] = test system: DU-145 prostate
# [46] = test system: SK-MEL-2 melanoma
# [47] = test system: OVCAR-3 ovarian
# [48] = test system: BT-549 breast
# [49] = test system: COLO 205 colon
# [50] = test system: NCI-H226 lung
# [51] = test system: SNB-19 CNS
# [52] = test system: NCI-H460 lung
# [53] = test system: SR leukemia
# [54] = test system: MALME-3M melanoma
# [55] = test system: KM12 colon
# [56] = test system: ACHN renal
# [57] = test system: TK-10 renal
structure (smiles),measurement,setting,value
N#Cc1c(N)nc(N2CCOCC2)c(C#N)c1-c1ccc(Cl)cc1Cl,GI50,[1],16.1 µM
same,TGI,[1],43.3 µM
same,GI50,[2],18.3 µM
same,TGI,[2],42 µM
same,GI50,[3],10.8 µM
same,TGI,[3],28.8 µM
same,GI50,[4],10.9 µM
same,TGI,[4],35.2 µM
same,GI50,[5],6.64 µM
same,TGI,[5],23.6 µM
same,GI50,[6],16.7 µM
same,TGI,[6],34.2 µM
same,GI50,[7],15.8 µM
same,TGI,[7],45.9 µM
same,GI50,[8],23.9 µM
same,TGI,[8],99.1 µM
same,GI50,[9],16.4 µM
same,TGI,[9],39.3 µM
same,GI50,[10],3.35 µM
same,TGI,[10],26.3 µM
same,GI50,[11],15.5 µM
same,TGI,[11],56.4 µM
same,GI50,[12],20.2 µM
same,TGI,[12],54.9 µM
same,GI50,[13],18 µM
same,TGI,[13],62.4 µM
same,GI50,[14],28 µM
same,TGI,[14],91.6 µM
same,GI50,[15],8.8 µM
same,TGI,[15],36.2 µM
same,GI50,[16],24.2 µM
same,TGI,[16],> 100 µM
same,GI50,[17],19.7 µM
same,TGI,[17],48.4 µM
same,GI50,[18],13.3 µM
same,TGI,[18],28.2 µM
same,GI50,[19],4.77 µM
same,TGI,[19],18.4 µM
same,GI50,[20],12.9 µM
same,TGI,[20],81.4 µM
same,GI50,[21],27.3 µM
same,TGI,[21],> 100 µM
same,GI50,[22],17.9 µM
same,TGI,[22],42.1 µM
same,GI50,[23],5.67 µM
same,TGI,[23],38.4 µM
same,GI50,[24],23.2 µM
same,TGI,[24],75 µM
same,GI50,[25],5.75 µM
same,TGI,[25],21.9 µM
same,GI50,[26],3.26 µM
same,TGI,[26],15.8 µM
same,GI50,[27],2.68 µM
same,TGI,[27],11.1 µM
same,GI50,[28],6.31 µM
same,TGI,[28],30.4 µM
same,GI50,[29],19 µM
same,TGI,[29],51.8 µM
same,GI50,[30],19.9 µM
same,TGI,[30],48.1 µM
same,GI50,[31],15.9 µM
same,TGI,[31],43.7 µM
same,GI50,[32],18.2 µM
same,TGI,[32],54.5 µM
same,GI50,[33],22.1 µM
same,TGI,[33],54.7 µM
same,GI50,[34],17.4 µM
same,TGI,[34],42.4 µM
same,GI50,[35],18.6 µM
same,TGI,[35],46.8 µM
same,GI50,[36],23.1 µM
same,TGI,[36],71.2 µM
same,GI50,[37],19.5 µM
same,TGI,[37],56.9 µM
same,GI50,[38],14.2 µM
same,TGI,[38],35.6 µM
same,GI50,[39],18.4 µM
same,TGI,[39],53.1 µM
same,GI50,[40],21.8 µM
same,TGI,[40],78.2 µM
same,GI50,[41],14.7 µM
same,TGI,[41],29.2 µM
same,GI50,[42],20.1 µM
same,TGI,[42],64.3 µM
same,GI50,[43],19.5 µM
same,TGI,[43],44.8 µM
same,GI50,[44],22.2 µM
same,TGI,[44],91.1 µM
same,GI50,[45],24.6 µM
same,TGI,[45],81 µM
same,GI50,[46],13.6 µM
same,TGI,[46],32.4 µM
same,GI50,[47],13.7 µM
same,TGI,[47],41.3 µM
same,GI50,[48],17.4 µM
same,TGI,[48],55.8 µM
same,GI50,[49],16.6 µM
same,TGI,[49],40.6 µM
same,GI50,[50],26.9 µM
same,TGI,[50],> 100 µM
same,GI50,[51],15.9 µM
same,TGI,[51],60.9 µM
same,GI50,[52],9.38 µM
same,TGI,[52],25.3 µM
ClCc1ccc(Cn2cnc3nc(Cl)nc(Cl)c32)cc1,GI50,[1],1.41 µM
same,TGI,[1],3.15 µM
same,GI50,[2],1.31 µM
same,TGI,[2],2.83 µM
same,GI50,[3],0.974 µM
same,TGI,[3],2.54 µM
same,GI50,[4],2.9 µM
same,TGI,[4],7.98 µM
same,GI50,[5],1.37 µM
same,TGI,[5],2.72 µM
same,GI50,[6],0.487 µM
same,TGI,[6],1.23 µM
same,GI50,[7],19.2 µM
same,TGI,[7],44.8 µM
same,GI50,[8],2.52 µM
same,TGI,[8],> 28.8 µM
same,GI50,[9],0.97 µM
same,GI50,[11],0.481 µM
same,TGI,[11],1.03 µM
same,GI50,[12],1.91 µM
same,TGI,[12],3.64 µM
same,GI50,[13],1.95 µM
same,TGI,[13],4.33 µM
same,GI50,[14],1.98 µM
same,TGI,[14],3.74 µM
same,GI50,[53],4.16 µM
same,TGI,[53],> 100 µM
same,GI50,[54],1.6 µM
same,TGI,[54],3.24 µM
same,GI50,[15],0.663 µM
same,TGI,[15],2.36 µM
same,GI50,[16],1.68 µM
same,TGI,[16],5.26 µM
same,GI50,[17],1.84 µM
same,TGI,[17],3.65 µM
same,GI50,[18],1.62 µM
same,TGI,[18],3.18 µM
same,GI50,[19],1.85 µM
same,TGI,[19],4.41 µM
same,GI50,[20],1.36 µM
same,TGI,[20],4.82 µM
same,GI50,[21],1.47 µM
same,TGI,[21],3.28 µM
same,GI50,[22],0.593 µM
same,TGI,[22],1.14 µM
same,GI50,[23],1.3 µM
same,TGI,[23],3.24 µM
same,GI50,[24],1.79 µM
same,TGI,[24],6.19 µM
same,GI50,[55],0.677 µM
same,TGI,[55],1.48 µM
same,GI50,[25],1.71 µM
same,TGI,[25],3.19 µM
same,GI50,[26],1.41 µM
same,TGI,[26],2.88 µM
same,GI50,[27],4.36 µM
same,TGI,[27],8.48 µM
same,GI50,[28],0.656 µM
same,TGI,[28],1.48 µM
same,GI50,[29],1.75 µM
same,TGI,[29],3.27 µM
same,GI50,[30],1.77 µM
same,TGI,[30],3.36 µM
same,GI50,[31],0.444 µM
same,TGI,[31],0.926 µM
same,GI50,[32],1.84 µM
same,TGI,[32],3.66 µM
same,GI50,[33],0.235 µM
same,TGI,[33],1.26 µM
same,GI50,[34],0.772 µM
same,TGI,[34],1.96 µM
same,GI50,[35],1.5 µM
same,TGI,[35],2.86 µM
same,GI50,[36],1.8 µM
same,TGI,[36],3.54 µM
same,GI50,[56],0.523 µM
same,TGI,[56],0.953 µM
same,GI50,[37],1.68 µM
same,TGI,[37],28.3 µM
same,GI50,[38],0.629 µM
same,TGI,[38],1.43 µM
same,GI50,[39],1.86 µM
same,TGI,[39],4 µM
same,GI50,[40],1.57 µM
same,TGI,[40],3.03 µM
same,GI50,[41],0.801 µM
same,TGI,[41],3.75 µM
same,GI50,[42],0.704 µM
same,TGI,[42],1.88 µM
same,GI50,[43],0.417 µM
same,TGI,[43],0.89 µM
same,GI50,[44],2.36 µM
same,TGI,[44],5.7 µM
same,GI50,[45],0.444 µM
same,TGI,[45],1.12 µM
same,GI50,[46],1.41 µM
same,TGI,[46],3.06 µM
same,GI50,[47],0.687 µM
same,TGI,[47],1.45 µM
same,GI50,[48],1.87 µM
same,TGI,[48],3.48 µM
same,GI50,[57],0.43 µM
same,TGI,[57],0.932 µM
same,GI50,[49],5.66 µM
same,TGI,[49],> 20.5 µM
same,GI50,[50],0.946 µM
same,TGI,[50],2.92 µM
same,GI50,[51],3.01 µM
same,GI50,[52],3.65 µM
same,TGI,[52],9.19 µM
